Measured values published in ChEMBL document CHEMBL1132746, “Biologically active oligodeoxyribonucleotides. Part 12: N2-methylation of 2'-deoxyguanosines enhances stability of parallel G-quadruplex and anti-HIV-1 activity” (Bioorg Med Chem Lett, 2000).

Columns and labels:
Settings in all cases: Homo sapiens
MT4 [1] = assay: Tested for cytopathic effect of compound for MT-4 cells infected with HIV-1 IIIb strain relative to R-95288 (1); format: functional, cell-based
MT4 [2] = assay: Concentration required to show cytotoxicity for MT-4 cells infected with HIV-1 IIIb strain; format: functional
MT4 [3] = assay: Tested for cytopathic effect of compound for MT-4 cells infected with HIV-1 IIIb strain; format: functional, cell-based

**Q.** What does the source list for `Cc1cn([C@H]2C[C@H](OP(=O)(O)O[C@H]3O[C@@H](n4cnc5c(O)nc(N)nc54)C[C@@H]3OP(=O)(O)OC[C@H]3O[C@@H](n4cnc5c(O)nc(N)nc54)C[C@@H]3OP(=O)(O)OC[C@H]3O[C@@H](n4cnc5c(O)nc(N)nc54)C[C@@H]3OP(=O)(O)O)[C@@H](COCc3ccc(OCc4ccccc4)c(OCc4ccccc4)c3)O2)c(=O)[nH]c1=O`?
**A.** IC50 (MT4 [1]): 43 µM; CC50 (MT4 [2]): > 40 µM

**Q.** Which IC50 (MT4 [3]) does the source give for `Cc1cn([C@H]2C[C@H](OP(=O)(O)O[C@H]3O[C@@H](n4cnc5c(=O)[nH]c(N)nc54)C[C@@H]3OP(=O)(O)OC[C@H]3O[C@@H](n4cnc5c(=O)[nH]c(N)nc54)C[C@@H]3OP(=O)(O)OC[C@H]3O[C@@H](n4cnc5c(=O)[nH]c(N)nc54)C[C@@H]3OP(=O)(O)OC[C@H]3O[C@@H](n4cnc5c4N=CNC5N)C[C@@H]3OP(=O)(O)OC[C@H]3O[C@@H](n4cnc5c(=O)[nH]c(N)nc54)C[C@@H]3OP(=O)(O)OCCO)[C@@H](COCc3ccc(OCc4ccccc4)c(OCc4ccccc4)c3)O2)c(=O)[nH]c1=O` (some centres undefined) here?
**A.** 1 µM

**Q.** And the CC50 (MT4 [2])?
**A.** > 40 µM
